Measurements published in patent US20240279215A1 (Cytokinetics, Incorporated, priority 2022, published 2024).

target: human NAMPT (Homo sapiens (Human), UniProt P43490); experiment: NMN fluorescence biochemical assay (human recombinant NAMPT enzyme assay)
Outline: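 Activation of recombinant human NAMPT (6 nM) was tested with 2.5 mM ATP, 20 μM PRPP and 150 μM nicotinamide in 50 mM HEPES pH 7.2 for 60 min at ambient temperature. NMN was derivatized with acetophenone/KOH/formic acid and read by fluorescence (355/460 nm) after 40 min.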

human NAMPT, sequence (P43490 whole entry): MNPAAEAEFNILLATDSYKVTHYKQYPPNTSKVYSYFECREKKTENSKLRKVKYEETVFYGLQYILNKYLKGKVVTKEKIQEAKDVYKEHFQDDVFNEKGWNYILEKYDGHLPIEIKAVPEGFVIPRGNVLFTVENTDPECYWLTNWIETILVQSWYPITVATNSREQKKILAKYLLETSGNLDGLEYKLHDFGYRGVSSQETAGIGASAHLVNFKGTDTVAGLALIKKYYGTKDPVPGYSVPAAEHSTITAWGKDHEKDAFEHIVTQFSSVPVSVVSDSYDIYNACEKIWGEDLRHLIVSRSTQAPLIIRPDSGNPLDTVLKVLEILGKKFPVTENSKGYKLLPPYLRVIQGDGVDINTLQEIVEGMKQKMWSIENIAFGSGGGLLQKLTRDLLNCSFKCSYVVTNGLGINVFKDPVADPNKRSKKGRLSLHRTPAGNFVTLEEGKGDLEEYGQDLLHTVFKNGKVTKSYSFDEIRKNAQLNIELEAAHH

Structure (SMILES)	AC1.4 Human [µM]	EC50 [µM]
Cc1cnc(C(=O)NCc2ccc(NC(=O)OCc3ccc(Cl)cc3)cc2)cn1 [Compound 136, (4-chlorophenyl)methyl N-(4-{[(5-methylpyrazin-2-yl)formamido]methyl}phenyl)carbamate]	1.09	2.23
CCc1cc(C(=O)N[C@@H](C)c2ccc(NC(=O)OCc3ccc(Cl)cc3)cc2)n(C)n1 [Compound 137, (4-chlorophenyl)methyl N-{4-[(1S)-1-[(5-ethyl-2-methylpyrazol-3-yl)formamido]ethyl]phenyl}carbamate]	1.11	3.83
COc1cc(C(=O)NCc2ccc(NC(=O)OCc3ccc(Cl)cc3)cc2)n(C)n1 [Compound 138, (4-chlorophenyl)methyl N-(4-{[(5-methoxy-2-methylpyrazol-3-yl)formamido]methyl}phenyl)carbamate]	1.11	8.41
Cc1cc(C(=O)N[C@@H](C)c2ccc(NC(=O)OCc3ccc(Cl)cc3)cc2)n(C)n1 [Compound 139, (4-chlorophenyl)methyl N-{4-[(1S)-1-[(2,5-dimethylpyrazol-3-yl)formamido]ethyl]phenyl}carbamate]	1.11	13.1
Cc1noc(C(=O)NCc2ccc(NC(=O)OCc3ccc(Cl)cc3)cc2)c1C [Compound 140, (4-chlorophenyl)methyl N-(4-{[(3,4-dimethyl-1,2-oxazol-5-yl)formamido]methyl}phenyl)carbamate]	1.15	4.51
Cc1nn(C)c(C(=O)N[C@@H](C)c2ccc(NC(=O)OCc3ccc(Cl)cc3)cc2)c1F [Compound 141, (4-chlorophenyl)methyl N-{4-[(1S)-1-[(4-fluoro-2,5-dimethylpyrazol-3-yl)formamido]ethyl]phenyl}carbamate]	1.17	2.24
Cc1cnoc1C(=O)N[C@@H](C)c1ccc(NC(=O)OCc2ccc(Cl)cc2)cc1 [Compound 142, (4-chlorophenyl)methyl N-{4-[(1S)-1-[(4-methyl-1,2-oxazol-5-yl)formamido]ethyl]phenyl}carbamate]	1.17	7.35
C[C@@H](c1ccc(NC(=O)OCc2ccc(Cl)cc2)cc1)N(C)C(=O)N1CCCC1 [Compound 143, 4-chlorobenzyl (S)-(4-(1-(N-methylpyrrolidine-1-carboxamido)ethyl)phenyl)carbamate]	1.18	10.8
CC1CN(C(=O)N[C@@H](C)c2ccc(NC(=O)OCc3ccc(Cl)cc3)cc2)C1 [Compound 144, (4-chlorophenyl)methyl N-{4-[(1S)-1-(3-methylazetidine-1-carbonylamino)ethyl]phenyl}carbamate]	1.18	7.67
CC1CCN(C(=O)N[C@@H](C)c2ccc(NC(=O)OCc3ccc(Cl)cc3)cc2)CC1 [Compound 145, 4-chlorobenzyl (S)-(4-(1-(4-methylpiperidine-1-carboxamido)ethyl)phenyl)carbamate]	1.19	8.23
Cc1ncc(C(=O)NCc2ccc(NC(=O)OCc3ccc(Cl)cc3)cc2)cc1F [Compound 146, (4-chlorophenyl)methyl N-(4-{[(5-fluoro-6-methylpyridin-3-yl)formamido]methyl}phenyl)carbamate]	1.20	2.35
O=C(Nc1ccc(CNC(=O)c2c(F)cncc2F)cc1)OCc1ccc(Cl)cc1 [Compound 147, (4-chlorophenyl)methyl N-(4-{[15.2 (3,5-difluoropyridin-4-yl)formamido]methyl}phenyl)carbamate]	1.22	5.21
COC(=O)N1CCC(c2ccc(NC(=O)OCc3cnco3)cc2)CC1 [Compound 148, methyl 4-(4-(((oxazol-5-ylmethoxy)carbonyl)amino)phenyl)piperidine-1-carboxylate]	1.23	11.5
C[C@H](NC(=O)c1ccnn1C)c1ccc(NC(=O)OCc2ccc(Cl)cc2)cc1 [Compound 149, (4-chlorophenyl)methyl N-{4-[(1S)-1-[(2-methylpyrazol-3-yl)formamido]ethyl]phenyl}carbamate]	1.23	7
Cc1nocc1C(=O)N[C@@H](C)c1ccc(NC(=O)OCc2ccc(Cl)cc2)cc1 [Compound 150, (4-chlorophenyl)methyl N-{4-[(1S)-1-[(3-methyl-1,2-oxazol-4-yl)formamido]ethyl]phenyl}carbamate]	1.24	4.31
O=C(Nc1ccc(C2CCS(=O)(=O)CC2)cc1)OCc1ccc(Cl)cc1 [Compound 151]	1.25	5.89
Cc1ncoc1C(=O)N[C@@H](C)c1ccc(NC(=O)OCc2ccc(Cl)cc2)cc1 [Compound 152, (4-chlorophenyl)methyl N-{4-[(1S)-1-[(4-methyl-1,3-oxazol-5-yl)formamido]ethyl]phenyl}carbamate]	1.27	10.6
O=C(Nc1ccc(Cc2ccncc2)cc1)OCc1cnco1 [Compound 153, oxazol-5-ylmethyl (4-(pyridin-4-ylmethyl)phenyl)carbamate]	1.27	33.8

Structure (SMILES)	AC1.4 Human [µM]	EC50 [µM]
C[C@H](NC(=O)N1CCOCC1)c1ccc(NC(=O)OCc2ccc(Cl)cc2)cc1 [Compound 154, 4-chlorobenzyl (S)-(4-(1-(morpholine-4-carboxamido)ethyl)phenyl)carbamate]	1.30	12
Cc1coc(C(=O)N(C)Cc2ccc(NC(=O)OCc3ccc(Cl)cc3)cc2)n1 [Compound 155, (4-chlorophenyl)methyl N-(4-{[N-methyl-1-(4-methyl-1,3-oxazol-2-yl)formamido]methyl}phenyl)carbamate]	1.31	5.8
COC(=O)N1CCN(C(=O)Cc2ccc(NC(=O)OCc3ccc(Cl)cc3)cc2)CC1 [Compound 156, methyl 4-(2-(4-((((4-chlorobenzyl)oxy)carbonyl)amino)phenyl)acetyl)piperazine-1-carboxylate]	1.31	9.45
Cc1ncc(C(=O)NCc2ccc(NC(=O)OCc3ccc(Cl)cc3)cc2)o1 [Compound 157, (4-chlorophenyl)methyl N-(4-{[(2-methyl-1,3-oxazol-5-yl)formamido]methyl}phenyl)carbamate]	1.32	9.11
COc1ccc(C(=O)NCc2ccc(NC(=O)OCc3ccc(Cl)cc3)cc2)cn1 [Compound 158, (4-chlorophenyl)methyl N-(4-{[(6-methoxypyridin-3-yl)formamido]methyl}phenyl)carbamate]	1.32	1.27
C[C@H](NC(=O)c1cncc(F)c1)c1ccc(NC(=O)OCc2ccc(Cl)cc2)cc1 [Compound 159, (4-chlorophenyl)methyl N-{4-[(1S)-1-[(5-fluoropyridin-3-yl)formamido]ethyl]phenyl}carbamate]	1.33	4.3
Cc1cc(C(=O)N(C)Cc2ccc(NC(=O)OCc3ccc(Cl)cc3)cc2)on1 [Compound 160, (4-chlorophenyl)methyl N-(4-{[N-methyl-1-(3-methyl-1,2-oxazol-5-yl)formamido]methyl}phenyl)carbamate]	1.33	5.32
CO[C@H]1CCCN(C(=O)Cc2ccc(NC(=O)OCc3ccc(Cl)cc3)cc2)C1 [Compound 161, 4-chlorobenzyl (S)-(4-(2-(3-methoxypiperidin-1-yl)-2-oxoethyl)phenyl)carbamate]	1.33	10.1
COc1ncc(C(=O)NCc2ccc(NC(=O)OCc3ccc(Cl)cc3)cc2)cn1 [Compound 162, (4-chlorophenyl)methyl N-(4-{[(2-methoxypyrimidin-5-yl)formamido]methyl}phenyl)carbamate]	1.36	4.5
CC(C)c1ccc(C(=O)N[C@@H](C)c2ccc(NC(=O)OCc3ccc(Cl)cc3)cc2)cn1 [Compound 163, (4-chlorophenyl)methyl N-{4-[(1S)-1-[(6-isopropylpyridin-3-yl)formamido]ethyl]phenyl}carbamate]	1.37	0.68
C[C@H](NC(=O)c1ccc(C(F)F)nc1)c1ccc(NC(=O)OCc2ccc(Cl)cc2)cc1 [Compound 164, (4-chlorophenyl)methyl N-{4-[(1S)-1-{[6-(difluoromethyl)pyridin-3-yl]formamido}ethyl]phenyl}carbamate]	1.38	1.6
Cc1cc(C)c(C(=O)NCc2ccc(NC(=O)OCc3ccc(Cl)cc3)cc2)cn1 [Compound 165]	1.38	7.53
COCCn1nccc1C(=O)NCc1ccc(NC(=O)OCc2ccc(Cl)cc2)cc1 [Compound 166, (4-chlorophenyl)methyl N-[4-({[2-(2-methoxyethyl)pyrazol-3-yl]formamido}methyl)phenyl]carbamate]	1.38	5.87
CCn1nccc1C(=O)NCc1ccc(NC(=O)OCc2ccc(Cl)cc2)cc1 [Compound 167, (4-chlorophenyl)methyl N-(4-{[(2-ethylpyrazol-3-yl)formamido]methyl}phenyl)carbamate]	1.39	4.54
COc1ccc(COC(=O)Nc2ccc(CN3CCN(C)CC3=O)cc2)cc1 [Compound 168, (4-methoxyphenyl)methyl N-{4-[(4-methyl-2-oxopiperazin-1-yl)methyl]phenyl}carbamate]	1.40	13.9
O=C(Nc1ccc(Cc2ccncc2)cc1)OCc1ccncc1 [Compound 169, pyridin-4-ylmethyl (4-(pyridin-4-ylmethyl)phenyl)carbamate]	1.41	6.11
COC1CN(C(=O)N[C@@H](C)c2ccc(NC(=O)OCc3ccc(Cl)cc3)cc2)C1 [Compound 170, (4-chlorophenyl)methyl N-{4-[(1S)-1-(3-methoxyazetidine-1-carbonylamino)ethyl]phenyl}carbamate]	1.41	9.33
